Experimental data reported in patent US20120220581A1, “IMIDAZO[1,2-b]PYRIDAZINE DERIVATIVES AND THEIR USE AS PDE10 INHIBITORS” (Janssen-Cilag, S.A., priority 2009, published 2012).
Read-outs that look alike come from different tables or passages of the source.

Columns and labels:
[1] = system: apomorphine-induced stereotypy in rats; assay: Apomorphine-induced stereotypy in rats (APO); type: in vivo; settings: Rattus norvegicus, ≧: active in 30% of the animals at the indicated dose, ≦: active in 60%
Experimental: Apomorphine (1.0 mg/kg, i.v.)-induced stereotypy (compulsive sniffing, licking, chewing) was scored every 5 min over the first hour after injection of apomorphine, following a 1 hour interval pre-treatment with the test compound. The score system was: (3) pronounced, (2) moderate, (1) slight, and (0) absent.

PDE5A3 = PDE5A3 (Homo sapiens, UniProt O76074); assay: In vitro PDE selectivity assay (SPA), PDE5A3; type: biochemical; settings: hPDE5A3; read-out: PDE 5A3 (expressed as pIC50) (converted)
Experimental: (§1) Rat recombinant PDE10A (rPDE10A2) was expressed in Sf9 cells using a recombinant rPDE10A baculovirus construct. Cells were harvested after 48 h of infection and the rPDE10A protein was purified by metal chelate chromatography on Ni-sepharose 6FF. Tested compounds were dissolved and diluted in 100% DMSO to a concentration 100 fold of the final concentration in the assay. Compound dilutions (0.4 μl) were added in 384 well plates to 20 μl of incubation buffer (50 mM Tris pH 7.8, 8.3 mM MgCl2, 1.7 mM EGTA). 10 μl of rPDE10A enzyme in incubation buffer was added and the reaction was started by addition of 10 μl substrate to a final concentration of 60 nM cAMP and 0.008 μCi ^3H-cAMP. The reaction was incubated for 60 minutes at room temperature. After incubation, the reaction was stopped with 20 μl of stop solution consisting of 17.8 mg/ml PDE SPA (scintillation proximity assay) beads. After sedimentation of the beads during 30 minutes the radioactivity was measured in a Perkin Elmer Topcount scintillation counter and results were expressed as cpm. For blanc values the enzyme was omitted from the reaction and replaced by incubation buffer. Control values were obtained by addition of a final concentration of 1% DMSO instead of compound. The same assay principle is applied for the measurement of the affinity of the compound for other members of the PDE family with appropriate modifications in incubation buffer, substrate concentration, incubation time and stop solution. An overview of the different protocols is presented in table A. A best fit curve is fitted by a minimum sum of squares method to the plot of % of control value substracted with blanc value versus compound concentration and the half maximal inhibitory concentration (IC50) value is derived from this curve.
(§2) The compounds of the invention are generally selective for PDE10 compared to other PDEs and there are a few that also have affinity for PDE1B1, 4D3 and 5A3.

PDE4D3 = PDE4D3 (Homo sapiens, UniProt Q08499); assay: In vitro PDE selectivity assay (SPA), PDE4D3; type: biochemical; settings: hPDE4D3; read-out: PDE 4D3 (expressed as pIC50) (converted)
Sequence of PDE4D3 (Q08499 1-673 isoform Q08499-2): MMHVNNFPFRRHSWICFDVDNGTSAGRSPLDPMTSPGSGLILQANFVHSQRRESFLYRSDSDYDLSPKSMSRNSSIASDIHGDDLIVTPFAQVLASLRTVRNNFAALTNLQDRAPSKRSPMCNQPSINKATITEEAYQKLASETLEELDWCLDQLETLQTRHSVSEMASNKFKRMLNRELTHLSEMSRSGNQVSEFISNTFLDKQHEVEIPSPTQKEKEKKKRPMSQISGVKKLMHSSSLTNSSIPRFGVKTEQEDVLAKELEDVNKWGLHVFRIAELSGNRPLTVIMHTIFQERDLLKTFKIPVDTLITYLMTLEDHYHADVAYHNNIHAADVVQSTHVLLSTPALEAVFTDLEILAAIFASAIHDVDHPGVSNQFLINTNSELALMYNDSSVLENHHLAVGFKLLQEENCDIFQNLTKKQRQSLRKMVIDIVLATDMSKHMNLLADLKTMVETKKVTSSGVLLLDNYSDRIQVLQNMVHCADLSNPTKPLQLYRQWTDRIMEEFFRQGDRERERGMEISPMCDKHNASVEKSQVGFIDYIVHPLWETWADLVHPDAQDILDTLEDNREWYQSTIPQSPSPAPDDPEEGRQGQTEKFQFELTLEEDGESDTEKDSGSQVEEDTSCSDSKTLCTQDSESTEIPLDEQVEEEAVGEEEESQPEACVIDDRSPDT
Experimental: as §1, §2

PDE10 = target: T1, PDE10 (Rattus norvegicus, UniProt Q9QYJ6); assay: PDE10 occupancy ([3H]-MP-10, striatum); type: in vivo
T1 construct: from tissue; host or cells: rat brain sections, striatum (in vivo dosing, ex vivo autoradiography)
T1 sequence (Q9QYJ6 1-794): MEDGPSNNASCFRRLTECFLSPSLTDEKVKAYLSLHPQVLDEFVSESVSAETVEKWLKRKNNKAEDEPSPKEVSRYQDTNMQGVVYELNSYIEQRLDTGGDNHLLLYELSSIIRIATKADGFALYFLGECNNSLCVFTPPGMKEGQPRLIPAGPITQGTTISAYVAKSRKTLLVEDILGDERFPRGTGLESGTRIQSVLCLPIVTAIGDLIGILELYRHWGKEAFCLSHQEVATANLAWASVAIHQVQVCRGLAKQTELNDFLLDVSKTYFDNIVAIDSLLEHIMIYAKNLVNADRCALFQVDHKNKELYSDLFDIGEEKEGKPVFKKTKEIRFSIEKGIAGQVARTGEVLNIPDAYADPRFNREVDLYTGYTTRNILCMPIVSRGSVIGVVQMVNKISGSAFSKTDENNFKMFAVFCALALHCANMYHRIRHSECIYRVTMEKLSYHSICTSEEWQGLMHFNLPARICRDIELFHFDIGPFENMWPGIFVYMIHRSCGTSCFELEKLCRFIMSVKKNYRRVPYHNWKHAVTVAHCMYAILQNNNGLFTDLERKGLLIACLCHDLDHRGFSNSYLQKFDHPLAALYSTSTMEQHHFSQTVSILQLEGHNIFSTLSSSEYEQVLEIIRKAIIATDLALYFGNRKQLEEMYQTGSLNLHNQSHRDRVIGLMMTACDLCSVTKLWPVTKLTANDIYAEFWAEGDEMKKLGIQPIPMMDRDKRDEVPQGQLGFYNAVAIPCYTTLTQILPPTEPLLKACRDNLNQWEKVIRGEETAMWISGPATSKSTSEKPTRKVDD
Experimental: Dose-response or single dose experiments were performed to measure PDE10 occupancy 1 hour after subcutaneous (s.c.) or oral (p.o.) administration. Male Wistar rats (200 g) were treated by s.c. or p.o. administration of various PDE10 inhibitors. The PDE10 radioligand [^3H]-MP-10 (10 μCi/animal) was injected intravenously (i.v.) 30 minutes before sacrifice. Brains were immediately removed from the skull and rapidly frozen. Twenty μm-thick brain sections were cut using a cryostat-microtome, thaw-mounted on microscope slides and loaded in a β-imager to quantify PDE10 occupancy in the striatum.

[2] = target: other members of the PDE family (Homo sapiens, UniProt O00408); assay: In vitro PDE selectivity assay (SPA), other members of the PDE family (protocols in Table A); type: biochemical; settings: hPDE2A; read-out: PDE 2A (expressed as pIC50) (converted)
Sequence of other members of the PDE family (Homo sapiens, UniProt O00408) (O00408 whole entry, canonical isoform): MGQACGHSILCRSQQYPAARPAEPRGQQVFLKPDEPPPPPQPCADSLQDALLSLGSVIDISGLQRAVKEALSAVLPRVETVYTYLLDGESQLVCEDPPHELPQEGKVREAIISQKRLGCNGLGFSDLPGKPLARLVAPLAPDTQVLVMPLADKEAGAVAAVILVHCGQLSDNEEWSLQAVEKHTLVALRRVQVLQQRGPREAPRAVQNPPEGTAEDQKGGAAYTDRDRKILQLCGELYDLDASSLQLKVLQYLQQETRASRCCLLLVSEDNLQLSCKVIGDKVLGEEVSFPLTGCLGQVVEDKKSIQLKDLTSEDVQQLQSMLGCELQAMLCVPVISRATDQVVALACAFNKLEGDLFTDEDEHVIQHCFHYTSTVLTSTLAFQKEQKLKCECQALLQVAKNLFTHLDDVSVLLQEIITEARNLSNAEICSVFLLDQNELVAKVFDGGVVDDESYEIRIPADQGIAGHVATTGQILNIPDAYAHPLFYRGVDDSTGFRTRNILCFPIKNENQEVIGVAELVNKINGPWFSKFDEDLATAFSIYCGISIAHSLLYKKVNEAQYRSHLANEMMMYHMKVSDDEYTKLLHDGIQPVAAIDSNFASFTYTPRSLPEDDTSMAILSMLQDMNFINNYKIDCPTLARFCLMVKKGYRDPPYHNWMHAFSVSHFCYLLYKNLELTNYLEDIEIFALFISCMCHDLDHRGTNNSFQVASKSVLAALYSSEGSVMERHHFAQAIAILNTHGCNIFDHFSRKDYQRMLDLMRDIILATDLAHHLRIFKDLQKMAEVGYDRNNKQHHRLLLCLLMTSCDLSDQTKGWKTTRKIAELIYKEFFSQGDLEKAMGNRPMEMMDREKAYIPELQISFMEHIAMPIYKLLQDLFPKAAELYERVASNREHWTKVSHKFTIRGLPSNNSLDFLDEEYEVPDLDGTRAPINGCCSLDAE
Summary of the method: (§3)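 Inhibition of each PDE isoform was measured by scintillation proximity assay with ³H-cyclic nucleotide substrate, using incubation buffer, substrate concentration, incubation time and stop solution adapted per isoform. Compounds were tested in dose-response against 1% DMSO controls and enzyme-free blanks. IC50 came from a least-squares fit of blank-subtracted % of control versus concentration.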

[3] = target: other members of the PDE family (Homo sapiens, UniProt O76083); assay: as above; type: biochemical; settings: hPDE9A; read-out: PDE 9A (expressed as pIC50) (converted)
Sequence of other members of the PDE family (Homo sapiens, UniProt O76083) (O76083 whole entry): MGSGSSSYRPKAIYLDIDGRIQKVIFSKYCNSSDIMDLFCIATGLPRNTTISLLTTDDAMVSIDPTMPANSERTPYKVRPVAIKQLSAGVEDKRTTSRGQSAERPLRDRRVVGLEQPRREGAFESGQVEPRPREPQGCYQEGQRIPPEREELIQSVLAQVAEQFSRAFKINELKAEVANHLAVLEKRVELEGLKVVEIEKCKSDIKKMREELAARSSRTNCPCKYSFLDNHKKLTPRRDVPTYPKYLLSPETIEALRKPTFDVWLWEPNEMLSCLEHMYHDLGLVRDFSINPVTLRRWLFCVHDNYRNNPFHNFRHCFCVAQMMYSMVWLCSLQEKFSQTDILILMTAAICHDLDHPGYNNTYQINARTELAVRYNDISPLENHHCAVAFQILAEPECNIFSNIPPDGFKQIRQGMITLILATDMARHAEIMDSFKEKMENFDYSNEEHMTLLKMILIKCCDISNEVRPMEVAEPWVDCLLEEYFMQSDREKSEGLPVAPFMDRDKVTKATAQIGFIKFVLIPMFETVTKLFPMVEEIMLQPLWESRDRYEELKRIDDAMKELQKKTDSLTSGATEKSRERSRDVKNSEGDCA
Summary of the method: as §3

[4] = target: other members of the PDE family (Homo sapiens, UniProt Q13946); assay: as above; type: biochemical; settings: hPDE7A1; read-out: PDE 7A (expressed as pIC50) (converted)
Sequence of other members of the PDE family (Homo sapiens, UniProt Q13946) (Q13946 whole entry): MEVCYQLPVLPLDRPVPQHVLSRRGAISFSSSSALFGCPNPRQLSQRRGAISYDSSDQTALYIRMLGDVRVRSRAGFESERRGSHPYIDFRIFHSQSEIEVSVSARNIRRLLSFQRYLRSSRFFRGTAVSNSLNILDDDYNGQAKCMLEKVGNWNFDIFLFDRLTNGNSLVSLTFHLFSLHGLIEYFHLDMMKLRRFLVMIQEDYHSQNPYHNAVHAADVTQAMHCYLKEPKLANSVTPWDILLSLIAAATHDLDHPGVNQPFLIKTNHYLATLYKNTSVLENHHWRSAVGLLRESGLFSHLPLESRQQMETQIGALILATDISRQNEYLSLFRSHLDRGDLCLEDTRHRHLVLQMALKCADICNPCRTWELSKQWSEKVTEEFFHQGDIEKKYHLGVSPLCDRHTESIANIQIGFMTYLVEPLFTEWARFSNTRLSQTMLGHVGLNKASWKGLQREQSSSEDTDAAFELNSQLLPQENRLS
Summary of the method: as §3

[5] = target: other members of the PDE family (Homo sapiens, UniProt Q9HCR9); assay: as above; type: biochemical; settings: hPDE11A4; read-out: PDE 11A4 (expressed as pIC50) (converted)
Sequence of other members of the PDE family (Homo sapiens, UniProt Q9HCR9) (Q9HCR9 whole entry): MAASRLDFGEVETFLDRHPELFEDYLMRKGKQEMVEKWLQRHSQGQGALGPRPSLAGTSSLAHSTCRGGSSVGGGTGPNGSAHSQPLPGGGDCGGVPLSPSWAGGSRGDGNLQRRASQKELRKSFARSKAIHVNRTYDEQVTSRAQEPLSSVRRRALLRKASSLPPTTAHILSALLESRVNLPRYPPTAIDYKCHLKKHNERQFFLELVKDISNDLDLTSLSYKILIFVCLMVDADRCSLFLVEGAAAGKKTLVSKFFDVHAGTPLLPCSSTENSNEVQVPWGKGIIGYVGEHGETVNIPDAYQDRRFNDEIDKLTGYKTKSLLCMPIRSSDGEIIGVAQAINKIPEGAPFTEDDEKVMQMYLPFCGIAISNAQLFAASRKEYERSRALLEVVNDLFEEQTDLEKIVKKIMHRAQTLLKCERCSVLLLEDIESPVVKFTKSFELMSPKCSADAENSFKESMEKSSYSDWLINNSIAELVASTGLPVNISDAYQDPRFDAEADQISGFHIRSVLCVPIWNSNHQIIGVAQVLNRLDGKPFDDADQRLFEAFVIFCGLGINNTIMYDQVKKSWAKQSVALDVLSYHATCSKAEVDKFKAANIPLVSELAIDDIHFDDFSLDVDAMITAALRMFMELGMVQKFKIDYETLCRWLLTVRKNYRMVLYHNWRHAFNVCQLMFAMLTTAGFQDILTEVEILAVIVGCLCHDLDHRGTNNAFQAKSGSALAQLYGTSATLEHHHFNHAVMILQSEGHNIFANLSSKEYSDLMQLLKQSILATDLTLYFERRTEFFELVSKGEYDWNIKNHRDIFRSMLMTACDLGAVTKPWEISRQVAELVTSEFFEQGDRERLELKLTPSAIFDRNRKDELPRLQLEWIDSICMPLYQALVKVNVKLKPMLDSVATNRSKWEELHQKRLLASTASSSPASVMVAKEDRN
Summary of the method: as §3

[6] = target: other members of the PDE family (Homo sapiens, UniProt Q14432); assay: as above; type: biochemical; settings: hPDE3A; read-out: PDE 3A (expressed as pIC50) (converted)
Sequence of other members of the PDE family (Homo sapiens, UniProt Q14432) (Q14432 whole entry): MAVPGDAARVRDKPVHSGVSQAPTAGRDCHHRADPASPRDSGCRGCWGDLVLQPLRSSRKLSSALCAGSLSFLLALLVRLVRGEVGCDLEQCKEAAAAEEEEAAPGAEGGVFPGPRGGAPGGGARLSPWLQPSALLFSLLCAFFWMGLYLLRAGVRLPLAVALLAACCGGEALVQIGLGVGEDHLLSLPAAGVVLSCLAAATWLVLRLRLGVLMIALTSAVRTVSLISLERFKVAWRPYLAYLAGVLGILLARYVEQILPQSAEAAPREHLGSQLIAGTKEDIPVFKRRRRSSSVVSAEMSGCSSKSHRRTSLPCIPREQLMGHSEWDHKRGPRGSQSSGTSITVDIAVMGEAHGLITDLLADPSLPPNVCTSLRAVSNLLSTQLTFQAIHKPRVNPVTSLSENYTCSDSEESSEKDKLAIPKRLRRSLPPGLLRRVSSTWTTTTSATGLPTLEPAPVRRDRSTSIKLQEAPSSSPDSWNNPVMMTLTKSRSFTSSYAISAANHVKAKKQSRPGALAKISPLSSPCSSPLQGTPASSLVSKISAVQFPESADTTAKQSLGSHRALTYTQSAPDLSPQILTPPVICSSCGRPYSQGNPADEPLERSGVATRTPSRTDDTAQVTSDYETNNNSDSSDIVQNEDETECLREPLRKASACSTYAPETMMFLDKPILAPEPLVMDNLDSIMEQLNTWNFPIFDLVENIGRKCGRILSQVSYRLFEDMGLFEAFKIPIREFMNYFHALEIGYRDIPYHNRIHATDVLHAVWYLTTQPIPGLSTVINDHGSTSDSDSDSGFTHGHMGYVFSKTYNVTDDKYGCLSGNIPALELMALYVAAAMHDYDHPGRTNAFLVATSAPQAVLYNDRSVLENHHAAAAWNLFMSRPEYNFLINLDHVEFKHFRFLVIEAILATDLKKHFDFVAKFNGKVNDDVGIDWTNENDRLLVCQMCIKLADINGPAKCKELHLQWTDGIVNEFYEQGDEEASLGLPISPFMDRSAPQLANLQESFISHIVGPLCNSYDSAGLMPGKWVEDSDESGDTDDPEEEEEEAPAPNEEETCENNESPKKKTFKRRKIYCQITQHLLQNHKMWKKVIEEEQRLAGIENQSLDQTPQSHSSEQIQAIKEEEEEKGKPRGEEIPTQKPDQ
Summary of the method: as §3

[7] = target: T2, Rat recombinant PDE10A (rPDE10A2) (Rattus norvegicus, UniProt Q9QYJ6); assay: In vitro assay PDE10A (SPA, 3H-cAMP); type: biochemical
T2 construct: inferred from the Ni metal chelate purification; made in house; host or cells: Sf9 insect cells (baculovirus)
T2 sequence (Q9QYJ6 1-794): T1 sequence (Q9QYJ6 1-794)
Summary of the method: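 Scintillation proximity read-out (cpm) of 3H-cAMP hydrolysis after 60 min at room temperature, with enzyme-free blanks and 1% DMSO controls. Enzyme was Sf9-expressed, Ni-sepharose-purified rat rPDE10A2; substrate 60 nM cAMP with tracer, buffer Tris pH 7.8 containing MgCl2 and EGTA.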

[8] = dose at which 50% of the tested animals show the effect
[9] = Table 4 in vitro selectivity, read-out: PDE 10A2 (expressed as pIC50) (converted)
[10] = pIC50 corresponds to the −log IC50 expressed in mol/L, read-out: PDE10A2 pIC50 (converted)

Compound	ED50 [1, 8] [mg/kg]	IC50 (PDE5A3) [µM]	IC50 (PDE4D3) [µM]	receptor occupancy at 10 mg/kg (PDE10; rat, sc, single dose 10 mg/kg, subcutaneous, read-out: SD sc % occupancy at 10 mg/kg) [%]	IC50 [2] [µM]	IC50 [3] [µM]	IC50 [4] [µM]	IC50 [5] [µM]	IC50 [6] [µM]	IC50 [7, 9] [µM]	IC50 [7, 10] [µM]	% occupancy at the highest dose tested (PDE10; dose response sc, data between brackets) [%]	ED50 (PDE10; rat, sc, dose response, subcutaneous administration, read-out: PDE10 in vivo occupancy ED50 sc) [mg/kg]	ED50 ([1]; po, * compound not soluble, tested orally as a suspension) [mg/kg]
COCCOc1ccc(-c2c(C)nc3c(N4CCOCC4)ccnn23)cn1 [compound 16, 3-[6-(2-methoxyethoxy)-3-pyridinyl]-2-methyl-8-(4-morpholinyl)-imidazo[1,2-b]pyridazine]	3.1	> 10	> 10	52	> 10	> 10	> 10	> 10	> 10	0.12	0.12	–	–	–
COCCn1cc(-c2c(C)nc3c(N4CCOCC4)cc(C4CC4)nn23)cn1 [compound 125, 6-cyclopropyl-3-[1-(2-methoxyethyl)-1H-pyrazol-4-yl]-2-methyl-8-(4-morpholinyl)-imidazo[1,2-b]pyridazine]	≥ 2.5	1.26	2.09	–	8.51	> 10	> 10	4.47	> 10	0.0832	0.0832	42	> 10	–
Cc1nc2c(N3CCOCC3)ccnn2c1-c1ccc(C(C)C)nc1 [compound 32, 2-methyl-3-[6-(1-methylethyl)-3-pyridinyl]-8-(4-morpholinyl)-imidazo[1,2-b]pyridazine]	5	> 10	> 10	–	> 10	> 10	> 10	> 10	> 10	0.0776	0.0776	–	–	–
Cc1nc2c(-c3ccncc3)ccnn2c1-c1cnn(CC(F)(F)F)c1 [compound 135, 2-methyl-8-(4-pyridinyl)-3-[1-(2,2,2-trifluoroethyl)-1H-pyrazol-4-yl]-imidazo[1,2-b]pyridazine]	–	2.57	> 10	–	> 10	> 10	> 10	5.89	7.41	0.0182	0.0182	–	–	3.1
COCCn1cc(-c2c(C)nc3c(-c4ccncc4)cc(C)nn23)cn1 [compound 134, 3-[1-(2-methoxyethyl)-1H-pyrazol-4-yl]-2,6-dimethyl-8-(4-pyridinyl)-imidazo[1,2-b]pyridazine]	5	0.589	5.5	–	8.13	> 10	4.9	5.37	> 10	0.105	0.105	–	–	–
COC(C)(C)CCc1ccc(-c2c(C)nc3c(N4CCOCC4)ccnn23)cn1 [compound 29, 3-[6-(3-methoxy-3-methylbutyl)-3-pyridinyl]-2-methyl-8-(4-morpholinyl)-imidazo[1,2-b]pyridazine]	≥ 2.5	4.47	> 10	–	1.2	> 10	> 10	> 10	> 10	0.0437	0.0437	–	–	–
COC(C)(C)Cn1cc(-c2c(C3CC3)nc3c(-c4ccncc4)ccnn23)cn1 [compound 143, 2-cyclopropyl-3-[1-(2-methoxy-2-methylpropyl)-1H-pyrazol-4-yl]-8-(4-pyridinyl)-imidazo[1,2-b]pyridazine]	1.2	0.646	5.13	–	3.98	> 10	5.89	1.95	1.45	0.0174	0.0174	–	–	–
Cc1nc2c(N3CCOCC3)ccnn2c1-c1ccnc(N2CCOCC2)c1 [compound 91, 2-methyl-8-(4-morpholinyl)-3-[2-(4-morpholinyl)-4-pyridinyl]-imidazo[1,2-b]pyridazine]	1.2	8.51	> 10	–	> 10	> 10	> 10	> 10	> 10	0.0468	0.0468	–	–	–
COCCc1ccc(-c2c(C3CC3)nc3c(-c4ccncc4)ccnn23)cn1 [compound 10, 2-cyclopropyl-3-[6-(2-methoxyethyl)-3-pyridinyl]-8-(4-pyridinyl)-imidazo[1,2-b]pyridazine]	1.2	1.29	1.26	–	6.61	> 10	> 10	1.41	> 10	0.0115	0.0115	–	–	–
COCCn1cc(-c2c(C)nc3c(N4CCOCC4)cc(C)nn23)cn1 [compound 133, 3-[1-(2-methoxyethyl)-1H-pyrazol-4-yl]-2,6-dimethyl-8-(4-morpholinyl)-imidazo[1,2-b]pyridazine]	3.1	2.4	> 10	–	> 10	> 10	> 10	> 10	> 10	0.0955	0.0955	–	–	–
